Where two headings read alike, the source gives them in different places.
Experiments:
[1] = molecular target: T1, human EP4 receptor (Homo sapiens, UniProt P35408); assay: [3H]-Prostaglandin E2 membrane binding assay (human EP4/HEK293 transfectant membranes); conditions: [3H]-PGE2 1 nM, hEP4/HEK293 membranes; Ki by Cheng-Prusoff; read-out: Binding pKi (converted)
T1 construct: expressed in transfected cells; membrane fraction used
In short: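 HEK293 membranes stably expressing human EP4 (10 µg protein) incubated with 1 nM [3H]-PGE2 in 10 mM MES-KOH pH 6, 10 mM MgCl2, 1 mM CaCl2, 90 min at room temperature; nonspecific binding with 1 µM PGE2. Filtration, scintillation counting; Ki via Cheng-Prusoff, reported as pKi; compounds tested 1 nM–1 µM.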

[2] = molecular target: T1, human EP4 receptor; assay: cAMP assay (AlphaScreen) on human EP4 membrane of transfected cells, antagonism of PGE2; assay type: biochemical; conditions: HEK293 hEP4 cell membrane stimulated with PGE2 3 nM; read-out: functional IC50
In short: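 Membranes of HEK293 cells stably expressing human EP4 (1 μg/well) in HBSS/IBMX 0.5 mM/GTP/GDP/ATP buffer, pH 7.4, preincubated 30 min at 22-23 °C with compound plus PGE2 3 nM. cAMP quantified by AlphaScreen competition with biotinylated cAMP after 1 h. IC50 from cAMP standard curve by linear regression.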

[3] = Pharmacokinetics in male Han Wistar rats, intravenous and oral; assay type: in vivo; conditions: rat; for AUC(0-inf) / AUC(0-t) / clearance / Vd / half-life / Cmax / Tmax / bioavailability: male, Han Wistar, plasma; for clearance: read-out: CLp* (converted); for Vd: read-out: Vss*; for half-life: read-out: t½* (converted); for bioavailability: po
Method: Determination of PK of the Invention Compounds
The pharmacokinetics of compounds E10, E16, E34, E38, E51, were studied in male Han Wistar rats. The rats were treated intravenously and orally (n=3 for each dose route) with a compounds formulated as solutions. The rats were fitted with a jugular cannula for serial sampling. A full profile was acquired for each rat. Plasma extracts were quantitatively analyzed using a specific and sensitive LC-MS/MS bioanalytical method. Inter-individual variations between the three rats in each group were limited (CV for pharmacokinetic parameters was below 50%).

[4] = 1 mg/kg, PO, 1.0 mg/kg, read-out: F %

T1 sequence (P35408 whole entry): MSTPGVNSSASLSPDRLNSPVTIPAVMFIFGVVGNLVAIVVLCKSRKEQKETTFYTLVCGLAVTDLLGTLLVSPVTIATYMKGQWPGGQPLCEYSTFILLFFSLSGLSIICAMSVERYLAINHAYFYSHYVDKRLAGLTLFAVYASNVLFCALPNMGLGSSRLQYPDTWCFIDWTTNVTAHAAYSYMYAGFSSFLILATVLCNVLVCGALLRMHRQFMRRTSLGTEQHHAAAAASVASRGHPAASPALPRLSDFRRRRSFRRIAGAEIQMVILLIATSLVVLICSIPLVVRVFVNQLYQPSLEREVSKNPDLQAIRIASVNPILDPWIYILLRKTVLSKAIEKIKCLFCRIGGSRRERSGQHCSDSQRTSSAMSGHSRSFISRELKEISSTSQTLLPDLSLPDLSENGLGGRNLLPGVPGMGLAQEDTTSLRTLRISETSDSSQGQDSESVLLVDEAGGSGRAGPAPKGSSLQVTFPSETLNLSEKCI

Ki [1] | IC50 [2] | AUC(0-inf) ([3]; IV, 1.0 mg/kg) | AUC(0-t) ([3]; IV, 1.0 mg/kg) | clearance ([3]; IV, 1.0 mg/kg) | Vd ([3]; IV, 1.0 mg/kg) | half-life ([3]; IV, 1.0 mg/kg) | AUC(0-inf) ([3]; PO, 1.0 mg/kg) | AUC(0-t) ([3]; PO, 1.0 mg/kg) | Cmax ([3]; PO, 1.0 mg/kg) | Tmax ([3]; PO, 1.0 mg/kg) | half-life ([3]; PO, 1.0 mg/kg) | bioavailability [3, 4] | Tlast ([3]; IV, 1.0 mg/kg) | Tlast ([3]; PO, 1.0 mg/kg) | Compound | other results
3.16 nM | 40 nM | – | – | – | – | – | – | – | – | – | – | – | – | – | O=C(O)c1ccc(C2(NC(=O)c3cc(Cl)cnc3N3CC(Oc4cccc(F)c4)C3)CC2)cc1 [E 16, 4-(1-(5-chloro-2-(3-(3-fluorophenoxy)azetidin-1-yl)nicotinamido)cyclopropyl)benzoic acid] | AUC(0-inf) ([3]; IV, 2.0 mg/kg): 3330 ng·h/mL; AUC(0-t) ([3]; IV, 2.0 mg/kg): 3290 ng·h/mL; clearance ([3]; IV, 2.0 mg/kg): 2.67 mL/min; Vd ([3]; IV, 2.0 mg/kg): 0.394 L; half-life ([3]; IV, 2.0 mg/kg): 5.62 h; AUC(0-inf) ([3]; PO, 2.0 mg/kg): 3000 ng·h/mL; AUC(0-t) ([3]; PO, 2.0 mg/kg): 2990 ng·h/mL; Cmax ([3]; PO, 2.0 mg/kg): 1800 ng/mL; Tmax ([3]; PO, 2.0 mg/kg): 0.25 h; half-life ([3]; PO, 2.0 mg/kg): 3.12 h; bioavailability ([3]; 2 mg/kg, PO, 2.0 mg/kg, read-out: F %): 91%; bioavailability ([3]; 2 mg/kg, after oral administration, read-out: absolute oral bioavailability F): 90%; Tlast ([3]; IV, 2.0 mg/kg): 24 h; Tlast ([3]; PO, 2.0 mg/kg): 24 h
3.16 nM | 43 nM | 302 ng·h/mL | 300 ng·h/mL | 14.4 mL/min | 0.227 L | 0.34 h | 128 ng·h/mL | 125 ng·h/mL | 98.1 ng/mL | 0.25 h | 1.16 h | 42% | 2 h | 6 h | Cc1cc(F)ccc1NC1CN(c2ncc(Cl)cc2C(=O)NC2(c3ccc(C(=O)O)cc3)CC2)C1 [E 34, 4-(1-(5-chloro-2-(3-((4-fluoro-2-methylphenyl)amino)azetidin-1-yl)nicotinamido)cyclopropyl)benzoic acid] | –
12.6 nM | 19.3 nM | 832 ng·h/mL | 816 ng·h/mL | 5.68 mL/min | 1.07 L | 5.9 h | 598 ng·h/mL | 551 ng·h/mL | 374 ng/mL | 0.25 h | 2.59 h | 59% | 24 h | 6 h | O=C(O)c1ccc(C2(NC(=O)c3cc(C(F)(F)F)cnc3N3CC(Oc4cccc(F)c4)C3)CC2)cc1 [E 38, 4-(1-(2-(3-(3-fluorophenoxy)azetidin-1-yl)-5-(trifluoromethyl)nicotinamido)cyclopropyl)benzoic acid] | –
6.31 nM | 28 nM | 389 ng·h/mL | 385 ng·h/mL | 11.2 mL/min | 0.447 L | 1.12 h | 231 ng·h/mL | 225 ng·h/mL | 151 ng/mL | 0.25 h | 1.14 h | 58% | 6 h | 6 h | Cc1cc(F)ccc1NC1CN(c2ncc(C(F)(F)F)cc2C(=O)NC2(c3ccc(C(=O)O)cc3)CC2)C1 [E 51, 4-(1-(2-(3-((4-fluoro-2-methylphenyl)amino)azetidin-1-yl)-5-(trifluoromethyl)nicotinamido)cyclopropyl)benzoic acid] | –

From patent publication US8828987B2, “Pyridine amide derivatives as EP4 receptor antagonists” (Rottapharm Biotech S.R.L., priority 2010, dated 2014)
